Assay results: patent US20240158446A1, “CYCLIC COMPOUND HAVING SELECTIVE INHIBITORY ACTION ON KRAS OVER HRAS AND NRAS” (CHUGAI SEIYAKU KABUSHIKI KAISHA, priority 2021, published 2024)
pKd: −log10 of the molar value. Where two headings read alike, the source gives them in different places. *1 amine or outer side, *2 acyl side, *3 side chain or, on linkers, in order; H or OH if unused. Where a SMILES comes first, the peptide text is derived from it. Bridges are numbered along the chain shown (N, C = ends). [ ]: non-standard residue; d: D form. The star is where a group is joined. hPhe(3-Cl-4-CF3) = N[C@@H](CCc1ccc(C(F)(F)F)c(Cl)c1)C(=O)O; X5 = C=CCN([C@@H](Cc1ccc(C(F)(F)F)cc1)C(=O)[*:2])[*:1]; NPrPhe(4-CF3) = CCCN[C@@H](Cc1ccc(C(F)(F)F)cc1)C(=O)O; NPrPhe(4-Me) = CCCN[C@@H](Cc1ccc(C)cc1)C(=O)O; NEtPhe(4-Me) = CCN[C@@H](Cc1ccc(C)cc1)C(=O)O; X3 = CCCN([C@H](C(=O)[*:2])C1CCCC1)[*:1]; NMeGly(cPent) = CN[C@H](C(=O)O)C1CCCC1; Pro(4,4-F2) = O=C(O)[C@@H]1CC(F)(F)CN1; Hyp = O=C(O)[C@@H]1C[C@@H](O)CN1; NMeD = CN[C@@H](CC(=O)O)C(=O)O; NMeL = CN[C@@H](CC(C)C)C(=O)O; Morpholide = C1CN(*)CCO1; NMeA = CN[C@@H](C)C(=O)O; Ac5c = NC1(C(=O)O)CCCC1; Aze = O=C(O)[C@@H]1CCN1; Sar = CNCC(=O)O

Legend:
[1] = target: GDP-bound KRAS wild-type protein (Homo sapiens, UniProt P01116); assay: Binding to KRAS by surface plasmon resonance (SPR), Single Cycle Kinetics; settings: GDP-bound KRAS wild-type protein, read-out: KRAS KD
Chain of GDP-bound KRAS wild-type protein (P01116 whole entry): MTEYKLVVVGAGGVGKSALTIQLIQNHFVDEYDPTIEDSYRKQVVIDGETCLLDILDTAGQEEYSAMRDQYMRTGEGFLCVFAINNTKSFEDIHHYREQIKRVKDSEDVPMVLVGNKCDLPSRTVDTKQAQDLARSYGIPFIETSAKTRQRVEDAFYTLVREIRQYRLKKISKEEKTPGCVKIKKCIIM

[2] = target: GDP-bound NRAS wild-type protein (Homo sapiens, UniProt P01111); assay: Binding to NRAS by surface plasmon resonance (SPR), Single Cycle Kinetics
Chain of GDP-bound NRAS wild-type protein (P01111 whole entry): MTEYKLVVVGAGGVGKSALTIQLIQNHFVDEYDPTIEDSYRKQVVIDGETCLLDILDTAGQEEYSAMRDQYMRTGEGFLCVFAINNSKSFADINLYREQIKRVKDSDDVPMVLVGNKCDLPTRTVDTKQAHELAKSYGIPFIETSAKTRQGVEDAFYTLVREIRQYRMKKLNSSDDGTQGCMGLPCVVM

[3] = target: GDP-bound HRAS wild-type protein (Homo sapiens, UniProt P01112); assay: Binding to HRAS by surface plasmon resonance (SPR), Single Cycle Kinetics
Chain of GDP-bound HRAS wild-type protein (P01112 whole entry): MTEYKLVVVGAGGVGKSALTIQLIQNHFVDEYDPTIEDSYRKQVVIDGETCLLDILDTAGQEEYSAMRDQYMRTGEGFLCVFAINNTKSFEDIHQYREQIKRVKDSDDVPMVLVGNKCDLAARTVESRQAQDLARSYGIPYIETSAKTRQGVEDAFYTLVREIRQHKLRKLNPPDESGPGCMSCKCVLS

[4] = SPR Single Cycle Kinetics, 1:1 binding model
[5] = SPR, GDP-bound NRAS wild-type protein vs GDP-bound KRAS wild-type protein
[6] = SPR, GDP-bound HRAS wild-type protein vs GDP-bound KRAS wild-type protein
[7] = SPR, Single Cycle Kinetics, 1:1 binding model
[8] = SPR, GDP-bound NRAS wild-type protein vs GDP-bound KRAS wild-type protein, KD ratio class
[9] = SPR, GDP-bound HRAS wild-type protein vs GDP-bound KRAS wild-type protein, KD ratio class

| Structure (SMILES) | pKd [1, 4] | NRAS/KRAS (ratio of KD value for NRAS to KD value for KRAS) [2, 5] | HRAS/KRAS (ratio of KD value for HRAS to KD value for KRAS) [3, 6] | other results |
| --- | --- | --- | --- | --- |
| CCCN1C(=O)CN(C)C(=O)CN(C)C(=O)[C@H]([C@@H](C)CC)NC(=O)[C@H](CC(C)C)N(C)C(=O)C[C@@H](C(=O)N2CCOCC2)N(C)C(=O)[C@H](C2CCCC2)N(C)C(=O)C2(CCCC2)NC(=O)[C@@H]2CCCN2C(=O)[C@H](CCc2ccc(C(F)(F)F)c(Cl)c2)NC(=O)CN(C)C(=O)[C@@H]1C1CCCC1 [PP0061] ([NMeL]I[Sar][Sar][X3][Sar][hPhe(3-Cl-4-CF3)]P[Ac5c][NMeGly(cPent)][NMeD]-Morpholide; lactam N-11) | 8.42 | B (a compound having 3 or more and less than 10 is denoted as B) | C (A compound having a KD ratio of 0.1 or more and less than 3 is denoted as C) |  |
| C=CCCCC[C@H]1C(=O)N[C@@H]([C@@H](C)CC)C(=O)N(C)CC(=O)N(C)[C@H]2CCCCN(C2=O)[C@@H](Cc2ccc(C(F)(F)F)cc2)C(=O)N(C)CC(=O)N[C@@H](CCc2cc(F)c(C(F)(F)F)c(F)c2)C(=O)N2C[C@H](OCC)C[C@H]2C(=O)N[C@](C)(CC=C)C(=O)N(C)[C@@H](C2CCCC2)C(=O)N(C)[C@H](C(=O)N2CCOCC2)CC(=O)N1C [PP0877] |  | C (A compound having a KD ratio of 0.1 or more and less than 3 is denoted as C) | B (a compound having 3 or more and less than 10 is denoted as B) | pKd ([1]; SPR, Single Cycle Kinetics): 9.68 |
| CCO[C@@H]1C[C@H]2C(=O)NC3(CCCC3)C(=O)N(C)[C@@H](C3CCCC3)C(=O)N(C)[C@H](C(=O)N3CCOCC3)CC(=O)N(C)[C@@H](CC(C)C)C(=O)N[C@@H]([C@@H](C)CC)C(=O)N(C)[C@@H](C)C(=O)N3CC[C@H]3C(=O)N(CC)[C@@H](Cc3ccc(C)cc3)C(=O)N(C)CC(=O)N[C@@H](CCc3ccc(C(F)(F)F)c(Cl)c3)C(=O)N2C1 [PP0014] ([NMeL]I[NMeA][Aze][NEtPhe(4-Me)][Sar][hPhe(3-Cl-4-CF3)][Hyp](Et)[Ac5c][NMeGly(cPent)][NMeD]-Morpholide; lactam N-11) | 10.05 | C (A compound having a KD ratio of 0.1 or more and less than 3 is denoted as C) | C (A compound having a KD ratio of 0.1 or more and less than 3 is denoted as C) |  |
| C=CCN1C(=O)[C@@H]2CCN2C(=O)[C@H](C)N(C)C(=O)[C@H]([C@@H](C)CC)NC(=O)[C@H](CC(C)C)N(C)C(=O)C[C@@H](C(=O)N2CCOCC2)N(C)C(=O)[C@H](C2CCCC2)N(C)C(=O)C2(CCCC2)NC(=O)[C@@H]2CCCN2C(=O)[C@H](CCc2ccc(C(F)(F)F)c(Cl)c2)NC(=O)CN(C)C(=O)[C@@H]1Cc1ccc(C(F)(F)F)cc1 [PP0114] ([NMeL]I[NMeA][Aze][X5][Sar][hPhe(3-Cl-4-CF3)]P[Ac5c][NMeGly(cPent)][NMeD]-Morpholide; lactam N-11) | 9.80 | C (A compound having a KD ratio of 0.1 or more and less than 3 is denoted as C) | C (A compound having a KD ratio of 0.1 or more and less than 3 is denoted as C) |  |
| CCCOC[C@H]1C(=O)N[C@@H]([C@@H](C)CC)C(=O)N(C)CC(=O)N(C)[C@H]2C/C=C\CCN(C2=O)[C@@H](Cc2ccc(C(F)(F)F)cc2)C(=O)N(C)CC(=O)N[C@@H](CCc2cc(F)c(C(F)(F)F)c(F)c2)C(=O)N2C[C@H](OCC)C[C@H]2C(=O)NC2(CC(C)(C)C2)C(=O)N(C)[C@@H](C2CCCC2)C(=O)N(C)[C@H](C(=O)N(C)CC)CC(=O)N1C [PP1572] |  |  |  | pKd [1, 7]: 10.11; NRAS/KRAS (ratio of KD value for NRAS to KD value for KRAS) [2, 8]: A (a compound having 10 or more and less than 20 is denoted as A); HRAS/KRAS (ratio of KD value for HRAS to KD value for KRAS) [3, 9]: A (a compound having 10 or more and less than 20 is denoted as A) |
| CCO[C@@H]1C[C@H]2C(=O)NC3(CCC3)C(=O)N(C)[C@@H](C(CC)CC)C(=O)N(C)[C@H](C(=O)N(C)C)CC(=O)N(C)[C@@H](CC3CCCC3)C(=O)N[C@@H]([C@@H](C)CC)C(=O)N(C)CC(=O)N(C)[C@H]3C/C=C\CCN(C3=O)[C@@H](Cc3ccc(F)cc3)C(=O)N(C)CC(=O)N[C@@H](CCc3cc(F)c(C(F)(F)F)c(F)c3)C(=O)N2C1 [PP1517] |  |  |  | pKd [1, 7]: 9.37; NRAS/KRAS (ratio of KD value for NRAS to KD value for KRAS) [2, 8]: A (a compound having 10 or more and less than 20 is denoted as A); HRAS/KRAS (ratio of KD value for HRAS to KD value for KRAS) [3, 9]: A (a compound having 10 or more and less than 20 is denoted as A) |
| CCCN1C(=O)[C@@H]2CCN2C(=O)[C@H](C)N(C)C(=O)[C@H]([C@@H](C)CC)NC(=O)[C@H](CC(C)C)N(C)C(=O)C[C@@H](C(=O)N2CCOCC2)N(C)C(=O)[C@H](C2CCCC2)N(C)C(=O)C2(CCCC2)NC(=O)CN(C)C(=O)[C@H](CCc2ccc(C(F)(F)F)c(Cl)c2)NC(=O)CN(C)C(=O)[C@@H]1Cc1ccc(C(F)(F)F)cc1 [PP0287] ([NMeL]I[NMeA][Aze][NPrPhe(4-CF3)][Sar][hPhe(3-Cl-4-CF3)][Sar][Ac5c][NMeGly(cPent)][NMeD]-Morpholide; lactam N-11) | 9.59 | C (A compound having a KD ratio of 0.1 or more and less than 3 is denoted as C) | C (A compound having a KD ratio of 0.1 or more and less than 3 is denoted as C) |  |

Second part, led by results:

| pKd [1, 4] | Structure (SMILES) | NRAS/KRAS (ratio of KD value for NRAS to KD value for KRAS) [2, 5] | HRAS/KRAS (ratio of KD value for HRAS to KD value for KRAS) [3, 6] | other results |
| --- | --- | --- | --- | --- |
| 10.27 | CCCN1C(=O)[C@@H]2CCN2C(=O)[C@H](C)N(C)C(=O)[C@H]([C@@H](C)CC)NC(=O)[C@H](CC(C)C)N(C)C(=O)C[C@@H](C(=O)N(C)C)N(C)C(=O)[C@H](C2CCCC2)N(C)C(=O)C2(CCCC2)NC(=O)[C@@H]2CC(F)(F)CN2C(=O)[C@H](CCc2ccc(C(F)(F)F)c(Cl)c2)NC(=O)CN(C)C(=O)[C@@H]1Cc1ccc(C(F)(F)F)cc1 [PP0436] ([NMeL]I[NMeA][Aze][NPrPhe(4-CF3)][Sar][hPhe(3-Cl-4-CF3)][Pro(4,4-F2)][Ac5c][NMeGly(cPent)][NMeD]-NMe2; lactam N-11) |  |  | NRAS/KRAS (ratio of KD value with respect to NRAS to KD value with respect to KRAS) [2, 5]: C (A compound having a KD ratio of 0.1 or more and less than 3 is denoted as C); HRAS/KRAS (ratio of KD value with respect to HRAS to KD value with respect to KRAS) [3, 6]: C (A compound having a KD ratio of 0.1 or more and less than 3 is denoted as C) |
| 9.35 | CCC[C@H]1C(=O)N[C@@H]([C@@H](C)CC)C(=O)N(C)CC(=O)N(C)[C@H]2C/C=C\CCN(C2=O)[C@@H](Cc2ccc(C(F)(F)F)cc2)C(=O)N(C)CC(=O)N[C@@H](CCc2ccc(Cl)c(OC)c2)C(=O)N2C[C@H](OCC)C[C@H]2C(=O)NC2(CC(C)(C)C2)C(=O)N(C)[C@@H](C2CCCC2)C(=O)N(C)[C@H](C(=O)N(C)C)CC(=O)N1C [PP2788] |  |  | NRAS/KRAS (ratio of KD value with respect to GDP-bound NRAS wild-type protein to KD value with respect to KRAS) ([2]; SPR KD ratio NRAS/KRAS, class symbols): A (a compound having 10 or more and less than 20 is denoted as A); HRAS/KRAS (ratio of KD value with respect to GDP-bound HRAS wild-type protein to KD value with respect to KRAS) ([3]; SPR KD ratio HRAS/KRAS, class symbols): A (a compound having 10 or more and less than 20 is denoted as A) |
| 9.82 | CCCN1C(=O)CN(C)C(=O)CN(C)C(=O)[C@H]([C@@H](C)CC)NC(=O)[C@H](CC(C)C)N(C)C(=O)C[C@@H](C(=O)N2CCOCC2)N(C)C(=O)[C@H](C2CCCC2)N(C)C(=O)C2(CCCC2)NC(=O)[C@@H]2CCCN2C(=O)[C@H](CCc2ccc(C(F)(F)F)c(Cl)c2)NC(=O)CN(C)C(=O)[C@@H]1Cc1ccc(C)cc1 [PP0059] ([NMeL]I[Sar][Sar][NPrPhe(4-Me)][Sar][hPhe(3-Cl-4-CF3)]P[Ac5c][NMeGly(cPent)][NMeD]-Morpholide; lactam N-11) | B (a compound having 3 or more and less than 10 is denoted as B) | C (A compound having a KD ratio of 0.1 or more and less than 3 is denoted as C) |  |
